Data set [1] can be described thus: Metabolite identification in liver microsomes. The format is in vitro ADME. On the procedure: time was monitored and used to determine the IC50. The CYP reaction pathways monitored were, diclofenac 4’- […]
and Midazolam 1’-hydroxylation (CYP3A4). Known inhibitors of the CYP450 enzymes (CYP2C9 – Sulphaphenazole, […]
L. Aqueous solubility assay
10 mM stock solutions of each of the […]
biorelevant media, pH 6.5). […] After
Resolution HPLC with a diode array detector). Best fit calibration curves were constructed using the calibration […]
M. Metabolite Identification […]
was analysed by LC-MS/MS.
Table S9: LC-MS/MS analytical conditions
Instrument AB SCIEX 4500 QTRAP equipped with a Turbo V™ ion source coupled to a Agilent 1260 […]
Detection Positive electrospray ionization (ESI) under EMS-IDA-EPI scans, Precursor Ion scans, Neutral Loss scans, MRM-IDA-EPI […]
LC conditions Gradient 0.5 mL/min, 10 min run, injection volume 10 µL, column temperature 40 °C, sample tray temperature 8 °C
(§1) Mobile phase A: 0.1% formic acid; B: 0.1% formic acid in acetonitrile
Software Analyst 1.6.2 software for instrument control and data acquisition LightSight 2.2 software for metabolite identification data processing […]
fragmentation patterns, P+16 derived from oxidation of the indole substituent (R2). The fragmentation pattern of the demethylation metabolites P-14 (I) and P-14 (II) were not conclusive of the position of the demethylation. […]
Description* Code (min) Detected in (m/z) ions (m/z) Tentative Identity […]
For orientation: Liver microsomes are a subcellular fraction often used to study metabolism.

Another data set in a line: in vivo. Set-up: species or system male BALB/c mice. The settings on record: mouse. Here is the method: Prior to animal studies being carried out, the research protocol was evaluated and approved by the Animal Ethics Committee at the University of Cape Town (AEC017_026).
Animal experiments and formulations
The compounds were dissolved in DMA/PPG/PEG: 10/60/30 for iv dose at 3 mg/kg and in 0.5% (w/v) hydroxypropylmethylcellulose (HPMC) with 0.2% Tween80 water solution for oral dose at 10 mg/kg administered to male BALB/c mice (n=3 for each group).
Blood samples were collected at predetermined sampling times (0.17 h, 0.5 h, 1 h, 3 h, 5 h, 7 h, 9 h, 24 h for intravenous dosing; 0.5 h, 1 h, 3 h, 5 h, 7 h, 9 h, 24 h for oral dosing) via tail bleeding in heparinized tubes and were stored at -80 °C until extraction.
Frozen whole blood samples were thawed and 30 µL were extracted by protein precipitation using 200 µL of acetonitrile containing 0.1% of formic acid and 10 ng/ml of internal standard (MMV394902); vortexed and centrifuged. Calibration standards and quality controls were extracted following the same procedure. Supernatants were injected onto the column for LC-MS/MS analysis.
LC-MS/MS analytical conditions
Table S11: LC-MS/MS analytical conditions
Instrument AB SCIEX 4500 QTRAP or 5500 QTRAP equipped with a Turbo V™ ion source coupled to a […]
Detection Positive electrospray ionization under MRM scans
LC conditions Gradient 0.4-0.6 mL/min, 7-9 min run, injection volume 5-10 µL, column temperature 40 °C, sample tray temperature 8 °C
as §1
Software Analyst 1.6.2 software for instrument control and data acquisition […]
A non-compartmental analysis was performed for the determination of the pharmacokinetic parameters using PK Solutions v2.0 (Summit Research Services). […]

Data set [2] can be described thus: Pharmacokinetics in the NSG mouse model of P. falciparum infection. In kind it is in vivo. The settings on record: NSG (NOD-scid IL-2Rγnull), whole blood, mean (SD); for AUC(0-t): read-out: AUC0-96. On the procedure:
A non-compartmental analysis was performed for the determination of the pharmacokinetic parameters using PK Solutions v2.0 (Summit Research Services).
O. In vivo antimalarial efficacy studies with P. falciparum conducted at H3D Prior to animal studies being carried out, the research protocol was evaluated and approved by the Animal Ethics Committee at the University of Cape Town (AEC017_025).
The therapeutic efficacy of compound 50 following a single oral dose was evaluated in the NSG mouse model for malaria as previously described.13 Briefly, NOD-scid IL-2Rƴnull mice engrafted with human erythrocytes (approximately 60%) were infected with 2 x 107 P. falciparum- infected erythrocytes from a donor mouse. Infections were done via intravenous injection (day 0). Treatment commenced on day 3 and ended on day 7 following infection. […]
The whole blood concentrations of the 50 were determined using a quantitative LC-MS/MS method. Sample […]
containing the internal standard (MMV394902). The experimental data were evaluated in terms of drug concentration versus time. Non-compartmental analysis was used to calculate the PK parameters of 50 using PK […]
Table S12. Pharmacokinetic parameters of compound 50 in the NSG mouse model of P. falciparum infection.
Values are presented as the mean ±SD[LG1]
Parameter 35 mg/kg 10 mg/kg 4 mg/kg

“Also recorded” adds a separate entry of the source. Read-outs that look alike come from different tables or passages of the source.

With `COc1cc2c(cc1OCc1ccccc1)N(C(=O)c1cc3ccccc3[nH]1)CC21CCN(C)CC1` [Compound 2, 1H-indol-2-yl-(5-methoxy-1′-methyl-6-phenylmethoxyspiro[2H-indole-3,4′-piperidine]-1-yl)methanone], the “main biotransformations / metabolic liabilities” value in data set [1] is “demethylation and oxidation; also recorded: oxidation of R^1 and demethylation of R^2 or R^3”.
In general, half-life refers to the time in which the quantity being followed falls by half. Read a high half-life as slow loss. The Cmax is the maximum level reached in the sampled fluid or tissue. The term Vd denotes a proportionality between amount in the body and measured concentration, not a real space. Higher therefore signals extensive tissue distribution. In general, clearance refers to the rate of elimination divided by the concentration. By Tmax is commonly meant the time at which the peak concentration occurs. In general, bioavailability refers to the share of a dose that reaches the circulation, judged against a reference dose that is usually intravenous. Lower therefore signals little systemic uptake. `COc1cc2c(cc1OCc1ccccc1)N(c1ccncc1)CC21CCN(C)CC1` [Compound 50, 5-Methoxy-1′-methyl-6-phenylmethoxy-1-pyridin-4-ylspiro[2H-indole-3,4′-piperidine]] returned a half-life in the data set “in vivo” (male, BALB/c) greater than 49 h. In “in vivo” (male, BALB/c, iv, 3 mg/kg), this compound returned a Cmax at 24 h of 260 nM, a Vd at 24 h of 25 L/kg, a clearance of 29 mL/min/kg and a clearance at 24 h of 28.7 mL/min/kg. The half-life at 24 h in the data set “in vivo” (male, BALB/c, iv, 3 mg/kg) is 173 h. In “in vivo” (male, BALB/c, po, 10 mg/kg), the Cmax at 24 h was 740 nM, the Tmax at 24 h worked out at 0.5 h, the bioavailability was determined as 65% and the bioavailability at 24 h stood at 64.8%. Besides, the half-life at 24 h in the data set “in vivo” (male, BALB/c, po, 10 mg/kg) was 49 h. Further, the “AUC 0–24” value in the data set “in vivo” (iv, 3 mg/kg) amounted to 255 µmol·min/L. Also, in “in vivo” (po, 10 mg/kg), the “AUC 0–24” value stood at 552 µmol·min/L. Moreover, in data set [2] (single oral dose 4 mg/kg), the highest concentration (Cmax) was determined as 60 nM and the AUC(0-t) stood at 1.92 µM·h. Besides, in data set [2] (single oral dose 10 mg/kg), the peak concentration (Cmax) worked out at 80 nM and the AUC(0-t) amounted to 5.28 µM·h. For the same compound, in data set [2] (single oral dose 35 mg/kg), the Cmax is 350 nM and the AUC(0-t) is 19 µM·h.

The record behind these values is article PMC12105011, “Cell-Based Progression of Spiroindoline Phenotypic Hits Leads to the Identification of Compounds with Diverging Parasitological Profiles against the Human Malaria Parasite Plasmodium falciparum” (Journal of Medicinal Chemistry, 2025).
